Activity calls are given as the source filed them. The calls are words filed in the database; no cut-off is given here.
How the values were obtained:
[1] = molecular target: D(2) dopamine receptor (Rattus norvegicus) (UniProt P61169); assay: Displacement of [3H]spiroperidol from dopamine receptor D2 binding sites of rat striatal membranes; inactive; format: cell membranes; details: Membrane
[2] = molecular target: Serotonin 1 (5-HT1) receptor (Rattus norvegicus, UniProt P28564+P30940+P19327+P28565); assay: Compound was evaluated for the inhibition of [3H]5-HT (concentration of 12 nM) specific binding to rat hippocampus; format: tissue-based
D(2) dopamine receptor = D(2) dopamine receptor (Rattus norvegicus, UniProt P61169); assay: Ability to displace [3H]spiroperidol, from dopamine receptor D2 specific binding sites of rat striatal membranes; design: species or system Striatum, Membrane
Sequence of D(2) dopamine receptor (P61169 whole entry): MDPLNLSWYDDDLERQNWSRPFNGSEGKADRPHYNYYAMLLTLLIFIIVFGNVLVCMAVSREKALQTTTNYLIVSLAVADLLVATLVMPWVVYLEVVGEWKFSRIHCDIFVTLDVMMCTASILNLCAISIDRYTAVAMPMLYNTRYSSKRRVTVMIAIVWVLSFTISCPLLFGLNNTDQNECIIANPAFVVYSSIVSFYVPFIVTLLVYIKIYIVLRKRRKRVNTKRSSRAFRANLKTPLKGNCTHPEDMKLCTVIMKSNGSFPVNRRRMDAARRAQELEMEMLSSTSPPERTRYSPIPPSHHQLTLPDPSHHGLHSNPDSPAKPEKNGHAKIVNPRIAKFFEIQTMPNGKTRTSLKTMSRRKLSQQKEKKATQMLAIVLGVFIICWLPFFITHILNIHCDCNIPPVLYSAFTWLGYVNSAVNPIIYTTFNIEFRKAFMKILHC

Sequence of D(2) dopamine receptor (Rattus norvegicus) (P61169 whole entry): as above

SMILES | Activity [1] | IC50 [2] [µM] | IC50 (D(2) dopamine receptor) [µM]
CCCN1CCOC(c2cccs2)C1 (stereo not given) | inactive |  | 
CCCN1CCOC(c2ccccc2OC)C1 (stereo not given) | inactive | 1 | 
CCCN1CCCC(c2ccccc2O)C1 (stereo not given) |  |  | 7
CCCN1CCOC(c2cccc(OC)c2)C1 (stereo not given) | inactive | 1 | 
CCCN1CCOC(c2ccccc2O)C1 (stereo not given) | inactive |  | 
CCCN1CCOC(c2ccsc2)C1 (stereo not given) | inactive |  | 
CCCN1CCCC(c2ccccc2OC)C1 (stereo not given) |  |  | 8
CCCN1CCOC(c2cccc([N+](=O)[O-])c2)C1 (stereo not given) | inactive |  | 
CCCN1CCOC(c2ccccc2Cl)C1 (stereo not given) | inactive | 3 | 
CCCN1CCOC(c2cccc(Cl)c2)C1 (stereo not given) | inactive | 5 | 
CCCN1CCOC(c2cccc(O)c2)C1 (stereo not given) | inactive |  | 

— ChEMBL document CHEMBL1125521, “Oxygen isosteric derivatives of 3-(3-hydroxyphenyl)-N-n-propylpiperidine” (J Med Chem, 1992)
